Experimental data taken from patent publication US11466016B2, “Pharmaceutical compounds” (priority 2018, dated 2022).
Structures can show the parent of a compound that is named as a salt. Where two headings read alike, the source gives them in different places.

Biological target: SHP2 (Homo sapiens (Human), UniProt Q06124)
Assay: SHP2 Biochemical Assay (DiFMUP conversion, pIRS1 activating peptide)
Method: SHP2 activity was monitored by measuring the conversion of the surrogate substrate 6,8-difluoromethylumbelliferyl phosphate (DiFMUP) to the fluorescent product, 6,8-difluoromethylumbelliferone (DiFMU).
SHP2 was pre-incubated with test compounds and the activating peptide pIRS1 (H2N-LN(pY)IDLDLV-(PEG)8-LST(pY)ASINFQK-amide) for 30 min, prior to addition of the […] (DiFMUP), (Thermo Fisher D6567). […] Rates of reaction were then measured over 30 min by monitoring fluorescence on a BMG Pherastar reader at excitation 360 nm/emission 450 nm. IC50 values were calculated from the normalized dose-response plots using four parameter logistic curve fit.

[1] = DiFMUP substrate, 0.25 μM pIRS1 peptide, 30 min pre-incubation, average where more than one data point, read-out: SHP2 (IC50)

Sequence of SHP2 (Q06124 whole entry): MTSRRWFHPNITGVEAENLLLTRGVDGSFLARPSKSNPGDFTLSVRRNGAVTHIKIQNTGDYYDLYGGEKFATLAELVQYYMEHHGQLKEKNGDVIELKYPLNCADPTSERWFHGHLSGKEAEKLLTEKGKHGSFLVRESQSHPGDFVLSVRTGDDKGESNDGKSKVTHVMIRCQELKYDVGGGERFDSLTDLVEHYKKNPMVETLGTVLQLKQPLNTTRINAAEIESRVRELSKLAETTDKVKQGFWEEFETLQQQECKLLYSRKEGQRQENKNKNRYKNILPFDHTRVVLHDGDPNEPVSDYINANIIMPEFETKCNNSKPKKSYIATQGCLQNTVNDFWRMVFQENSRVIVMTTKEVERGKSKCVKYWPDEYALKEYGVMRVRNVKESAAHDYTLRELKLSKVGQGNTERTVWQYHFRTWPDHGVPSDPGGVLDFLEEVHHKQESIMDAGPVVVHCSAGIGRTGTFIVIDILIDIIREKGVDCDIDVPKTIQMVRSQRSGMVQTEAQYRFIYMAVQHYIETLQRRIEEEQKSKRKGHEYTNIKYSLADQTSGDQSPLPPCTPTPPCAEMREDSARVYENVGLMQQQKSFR

| SMILES | IC50 [1] | also measured |
| --- | --- | --- |
| CC(C)(O)Cn1cc2c(Cl)c(-c3c[nH]c4nc(N5[C@@H]6CC[C@H]5C[C@@H](N)C6)cnc34)ccc2n1 [Example 53, 1-(5-{3-[endo-3-amino-8-azabicyclo[3.2.1]octan-8-yl]-5H-pyrrolo[2,3-b]pyrazin-7-yl}-4-chloro-2H-indazol-2-yl)-2-methylpropan-2-ol] | 29 nM |  |
| N[C@H]1C[C@H]2CC[C@@H](C1)N2c1cnc2c(-c3ccc4[nH]nc(Cl)c4c3Cl)c[nH]c2n1 [Example 54, endo-8-[7-(3,4-dichloro-1H-indazol-5-yl)-5H-pyrrolo[2,3-b]pyrazin-3-yl]-8-azabicyclo[3.2.1]octan-3-amine] | 10 nM |  |
| Cc1cc(-c2c[nH]c3nc(N4[C@@H]5CC[C@H]4C[C@@H](N)C5)cnc23)c(Cl)c2cn(C)nc12 [Example 55, endo-8-[7-(4-chloro-2,7-dimethyl-2H-indazol-5-yl)-5H-pyrrolo[2,3-b]pyrazin-3-yl]-8-azabicyclo[3.2.1]octan-3-amine] | 22 nM |  |
| Cn1cnc2ccc(-c3c[nH]c4nc(N5[C@@H]6CC[C@H]5C[C@@H](N)C6)cnc34)c(Cl)c2c1=O [Example 56, 6-{3-[endo-3-amino-8-azabicyclo[3.2.1]octan-8-yl]-5H-pyrrolo[2,3-b]pyrazin-7-yl}-5-chloro-3-methyl-3,4-dihydroquinazolin-4-one, hydrochloride salt] | 21 nM |  |
| CNC(=O)Cn1cc2c(Cl)c(-c3c[nH]c4nc(N5[C@@H]6CC[C@H]5C[C@@H](N)C6)cnc34)ccc2n1 [Example 57, 2-(5-{3-[endo-3-amino-8-azabicyclo[3.2.1]octan-8-yl]-5H-pyrrolo[2,3-b]pyrazin-7-yl}-4-chloro-2H-indazol-2-yl)-N-methylacetamide] | 23 nM |  |
| CN(C)C(=O)c1nc2ccc(-c3c[nH]c4nc(N5[C@@H]6CC[C@H]5C[C@@H](N)C6)cnc34)c(Cl)c2s1 [Example 59, 6-{3-[endo-3-amino-8-azabicyclo[3.2.1]octan-8-yl]-5H-pyrrolo[2,3-b]pyrazin-7-yl}-7-chloro-N,N-dimethyl-1,3-benzothiazole-2-carboxamide, hydrochloride salt] | 18 nM |  |
| CC(C)(C)NC(=O)Cn1cc2c(Cl)c(-c3c[nH]c4nc(N5[C@@H]6CC[C@H]5C[C@@H](N)C6)cnc34)ccc2n1 [Example 60, 2-(5-{3-[endo-3-amino-8-azabicyclo[3.2.1]octan-8-yl]-5H-pyrrolo[2,3-b]pyrazin-7-yl}-4-chloro-2H-indazol-2-yl)-N-tert-butylacetamide] | 12 nM |  |
| Cn1nc2ccc(-c3c[nH]c4nc(N5[C@@H]6CC[C@H]5C[C@@H](N)C6)cnc34)c(Cl)c2c1CC#N [Example 61, 2-(5-{3-[endo-3-amino-8-azabicyclo[3.2.1]octan-8-yl]-5H-pyrrolo[2,3-b]pyrazin-7-yl}-4-chloro-2-methyl-2H-indazol-3-yl)acetonitrile] | 130 nM |  |
| Cn1nc2ccc(-c3c[nH]c4nc(N5[C@@H]6CC[C@H]5C[C@@H](N)C6)cnc34)c(Cl)c2c1C#N [Example 62, 5-{3-[endo-3-amino-8-azabicyclo[3.2.1]octan-8-yl]-5H-pyrrolo[2,3-b]pyrazin-7-yl}-4-chloro-2-methyl-2H-indazole-3-carbonitrile] | 7.1 nM |  |
| Cn1cc2c(Cl)c(-c3c[nH]c4nc(N5[C@H]6CC[C@@H]5[C@@H](F)[C@@H](N)C6)cnc34)ccc2n1 [Example 64, (1R,2S,3S,5S)-8-[7-(4-chloro-2-methyl-2H-indazol-5-yl)-5H-pyrrolo[2,3-b]pyrazin-3-yl]-2-fluoro-8-azabicyclo[3.2.1]octan-3-amine] | 7.7 nM |  |
| Cn1cc2c(Cl)c(-c3c[nH]c4nc(N5[C@@H]6CC[C@H]5[C@H](F)[C@@H](N)C6)cnc34)ccc2n1 [Example 65, (1S,2R,3S,5R)-8-[7-(4-chloro-2-methyl-2H-indazol-5-yl)-5H-pyrrolo[2,3-b]pyrazin-3-yl]-2-fluoro-8-azabicyclo[3.2.1]octan-3-amine] | 37 nM |  |
| N[C@H]1C[C@H]2CC[C@@H](C1)N2c1cnc2c(-c3ccc4c(c3Cl)C(F)(F)C(=O)N4)c[nH]c2n1 [Example 66, 5-{3-[endo-3-amino-8-azabicyclo[3.2.1]octan-8-yl]-5H-pyrrolo[2,3-b]pyrazin-7-yl}-4-chloro-3,3-difluoro-2,3-dihydro-1H-indol-2-one, dihydrochloride salt] | 4.4 nM |  |
| Cn1cc2c(Cl)c(-c3c[nH]c4nc(N5[C@H]6CC[C@@H]5[C@@H](F)[C@H](N)C6)cnc34)ccc2n1 [Example 67, (1R,2S,3R,5S)-8-[7-(4-chloro-2-methyl-2H-indazol-5-yl)-5H-pyrrolo[2,3-b]pyrazin-3-yl]-2-fluoro-8-azabicyclo[3.2.1]octan-3-amine] | 57 nM |  |
| Cn1ccnc1Cn1cc2c(Cl)c(-c3c[nH]c4nc(N5[C@@H]6CC[C@H]5C[C@@H](N)C6)cnc34)ccc2n1 [Example 68, endo-8-(7-{4-chloro-2-[(1-methyl-1H-imidazol-2-yl)methyl]-2H-indazol-5-yl}-5H-pyrrolo[2,3-b]pyrazin-3-yl)-8-azabicyclo[3.2.1]octan-3-amine, trihydrochloride salt] |  | IC50: 21 nM |
| Cc1noc(Cn2cc3c(Cl)c(-c4c[nH]c5nc(N6[C@@H]7CC[C@H]6C[C@@H](N)C7)cnc45)ccc3n2)n1 [Example 69, endo-8-(7-{4-chloro-2-[(3-methyl-1,2,4-oxadiazol-5-yl)methyl]-2H-indazol-5-yl}-5H-pyrrolo[2,3-b]pyrazin-3-yl)-8-azabicyclo[3.2.1]octan-3-amine, hydrochloride salt] |  | IC50: 6.8 nM |
| Cn1ccc(Cn2cc3c(Cl)c(-c4c[nH]c5nc(N6[C@@H]7CC[C@H]6C[C@@H](N)C7)cnc45)ccc3n2)n1 [Example 70, endo-8-(7-{4-chloro-2-[(1-methyl-1H-pyrazol-3-yl)methyl]-2H-indazol-5-yl}-5H-pyrrolo[2,3-b]pyrazin-3-yl)-8-azabicyclo[3.2.1]octan-3-amine, trihydrochloride salt] | 8.8 nM |  |
| Cn1ccc2c(Cl)c(-c3c[nH]c4nc(N5CC[C@H](N)[C@H](F)C5)cnc34)ccc2c1=O [Example 71, 6-{3-[(3R,4S)-4-amino-3-fluoropiperidin-1-yl]-5H-pyrrolo[2,3-b]pyrazin-7-yl}-5-chloro-2-methyl-1,2-dihydroisoquinolin-1-one, hydrochloride salt] | 55 nM |  |
| CN1Cc2c(ccc(-c3c[nH]c4nc(N5CC[C@H](N)[C@H](F)C5)cnc34)c2Cl)C1=O [Example 72, 5-{3-[(3R,4S)-4-amino-3-fluoropiperidin-1-yl]-5H-pyrrolo[2,3-b]pyrazin-7-yl}-4-chloro-2-methyl-2,3-dihydro-1H-isoindol-1-one, hydrochloride salt] |  | SHP2 (percent at stated concentration): 50%@0.30 uM |
| Cc1nc2c(-c3ccc4nn(C)cc4c3Cl)n[nH]c2nc1N1[C@H]2CC[C@@H]1[C@@H](F)[C@@H](N)C2 [Example 73, (1R,2S,3S,5S)-8-[3-(4-chloro-2-methyl-2H-indazol-5-yl)-5-methyl-1H-pyrazolo[3,4-b]pyrazin-6-yl]-2-fluoro-8-azabicyclo[3.2.1]octan-3-amine, hydrochloride salt] | 9.8 nM |  |
| Cn1cnc2ccc(-c3c[nH]c4nc(N5CC[C@H](N)[C@H](F)C5)cnc34)c(Cl)c21 [Example 74, (3R,4S)-1-[7-(7-chloro-1-methyl-1H-1,3-benzodiazol-6-yl)-5H-pyrrolo[2,3-b]pyrazin-3-yl]-3-fluoropiperidin-4-amine] | 89 nM |  |
| Cc1nc2c(-c3ccc4nn(C)cc4c3Cl)n[nH]c2nc1N1CC[C@H](N)[C@H](F)C1 [Example 75, (3R,4S)-1-[3-(4-chloro-2-methyl-2H-indazol-5-yl)-5-methyl-1H-pyrazolo[3,4-b]pyrazin-6-yl]-3-fluoropiperidin-4-amine, hydrochloride] | 130 nM |  |
| Cn1c(=O)sc2ccc(-c3c[nH]c4nc(N5CC[C@H](N)[C@H](F)C5)cnc34)c(Cl)c21 [Example 76, 5-{3-[(3R,4S)-4-amino-3-fluoropiperidin-1-yl]-5H-pyrrolo[2,3-b]pyrazin-7-yl}-4-chloro-3-methyl-2,3-dihydro-1,3-benzothiazol-2-one, hydrochloride] | 440 nM |  |
| Cn1cnc2ccc(-c3c[nH]c4nc(N5[C@@H]6CC[C@H]5[C@@H](F)[C@@H](N)C6)cnc34)c(Cl)c2c1=O [Example 77, 6-{3-[(1S,2S,3S,5R)-3-amino-2-fluoro-8-azabicyclo[3.2.1]octan-8-yl]-5H-pyrrolo[2,3-b]pyrazin-7-yl}-5-chloro-3-methyl-3,4-dihydroquinazolin-4-one] |  | IC50: 18 nM |
| Cn1cc2c(Cl)c(-c3n[nH]c4nc(N5[C@H]6CC[C@@H]5[C@@H](F)[C@@H](N)C6)c(CO)nc34)ccc2n1 [Example 79, {6-[(1R,2S,3S,5S)-3-amino-2-fluoro-8-azabicyclo[3.2.1]octan-8-yl]-3-(4-chloro-2-methyl-2H-indazol-5-yl)-1H-pyrazolo[3,4-b]pyrazin-5-yl}methanol] | 9.1 nM |  |
| Cn1nc2ccc(-c3n[nH]c4nc(N5[C@H]6CC[C@@H]5[C@@H](F)[C@@H](N)C6)c(CO)nc34)c(Cl)c2c1Cl [Example 80, {6-[(1R,2S,3S,5S)-3-amino-2-fluoro-8-azabicyclo[3.2.1]octan-8-yl]-3-(3,4-dichloro-2-methyl-2H-indazol-5-yl)-1H-pyrazolo[3,4-b]pyrazin-5-yl}methanol] | 5.2 nM |  |
| Cn1cc2c(Cl)c(-c3n[nH]c4nc(N5[C@@H]6CC[C@H]5[C@@H](F)[C@@H](N)C6)c(CO)nc34)ccc2n1 [Example 81, {6-[(1S,2S,3S,5R)-3-amino-2-fluoro-8-azabicyclo[3.2.1]octan-8-yl]-3-(4-chloro-2-methyl-2H-indazol-5-yl)-1H-pyrazolo[3,4-b]pyrazin-5-yl}methanol] |  | IC50: 15 nM |
